Experimental data taken from publication PMC12549899 (Nature Communications, 2025).
“And” between values parts separate entries of the source, which are not always exact repeats. Equal entries are not always repeated.

Target: T1, DrOTOP1 A274W (Danio rerio, UniProt Q7ZWK8, A274W)
T1 construct: A previously generated codon-optimized full-length DrOTOP1[8]; (UniProt: Q7ZWK8) construct; expressed in transfected cells; host or cells: HEK-293 (CRL-1573, ATCC)
T1 sequence (Q7ZWK8 1-586 A274W): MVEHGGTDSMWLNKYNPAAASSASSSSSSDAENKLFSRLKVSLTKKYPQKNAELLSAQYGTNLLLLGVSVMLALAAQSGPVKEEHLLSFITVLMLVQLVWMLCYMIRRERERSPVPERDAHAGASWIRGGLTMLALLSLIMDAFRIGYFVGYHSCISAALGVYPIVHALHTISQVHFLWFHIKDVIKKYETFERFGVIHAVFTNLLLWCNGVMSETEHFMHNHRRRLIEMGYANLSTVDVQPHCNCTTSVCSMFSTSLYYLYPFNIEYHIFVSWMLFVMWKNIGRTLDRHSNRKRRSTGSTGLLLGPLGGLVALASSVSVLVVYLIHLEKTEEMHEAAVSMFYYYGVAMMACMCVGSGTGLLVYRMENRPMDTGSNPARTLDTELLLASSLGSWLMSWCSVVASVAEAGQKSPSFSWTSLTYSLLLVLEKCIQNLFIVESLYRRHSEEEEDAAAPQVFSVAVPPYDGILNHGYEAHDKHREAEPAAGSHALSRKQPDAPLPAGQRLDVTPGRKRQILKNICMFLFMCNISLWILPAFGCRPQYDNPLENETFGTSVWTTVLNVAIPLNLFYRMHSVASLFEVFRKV
Test: Whole-cell patch-clamp, inhibition of acid-evoked currents, DrOTOP1 A274W
Assay type: cell-based, zebrafish (Danio rerio)
Excerpt: We next tested mutations of the central site (L205W, A274W, F277A, E384A L385W, A388W). V201W and S389W, two additional central site mutations, were excluded from the study due to complete loss of channel activity. Mutation of E384 to alanine is expected to disrupt potential hydrogen bonding with C2.2. Of note, E384 is one of the few charged residues in the central pocket and could form a salt bridge with K281, that could also be affected by the mutation. Additionally, in our DrOTOP1_C2.2 structure, we observed that F277 underwent a substantial rearrangement, likely to avoid steric clash and accommodate C2.2 binding. Thus, we introduced the F277A mutation to test if removing this steric clash would enhance C2.2 inhibition.
HEK-293 cells (CRL-1573, ATCC) were cultured in DMEM (Thermofisher 11995073) containing 10% fetal bovine serum (Life Technology 16000044) and Penicillin-Streptomycin (100 I.U./mL) and (100 µg/mL), respectively. Cells were transfected with WT DrOTOP1 or mutant DrOTOP1 channels in 35 mm petri dishes, with ~ 500 ng DNA and 2 μL TransIT-LT1 transfection reagent (Mirus Bio Corporation, Cat # MIR2300) following the manufacturer’s protocol. All constructs were subcloned into a pcDNA3.1 vector that adds an N-terminal fusion tag consisting of an octahistidine tag followed by eGFP, a Gly-Thr-Gly-Thr linker and a 3C protease cleavage site ([…]) followed by WT DrOTOP1, WT mOTOP1, WT hOTOP1, or mutated DrOTOP1. Point mutations were generated via In-Fusion Cloning (Takara) using single-stranded DNA primers generated through IDT and sequence confirmed by Sanger sequencing (GeneWiz).
Whole-cell patch-clamp recording was performed as previously described[6],[22],[25]. Recordings were made with an Axopatch 200B amplifier, digitized with a Digidata 1322a 16-bit data acquisition system, acquired with pClamp 8.2 and analyzed with Clampfit 10 (Molecular Devices). Recordings were sampled at 5 kHz and filtered at 1 kHz. Patch Pipettes with resistance of […] were fabricated from borosilicate glass, and only recordings with a giga-Ohm seal were used in analysis. Membrane potential was held at −80 mV for the duration of recordings. At the beginning of recordings and between, cells were washed with Tyrode’s solution (see below). Once a giga-Ohm seal was reached, cells were lifted and placed in front of microcapillary tubes controlled by a Fast-Step perfusion system (Warner Instruments) so that extracellular solutions could be rapidly exchanged during each experiment.
Standard Tyrode’s solution consisted of 145 mM NaCl, 5 mM KCl, MgCl2, 2 mM CaCl2, 20 mM D-Glucose, and 10 mM HEPES (for pH 7.4). All other extracellular patch-clamp solutions contained 160 mM NMDG-Cl, 2 mM CaCl2, and the following buffers: 10 mM HEPES (for pH 7.4), 10 mM MES (for pH 6.5-5.5), 10 mM CHES for pH 10, and 10 mM HomoPIPES for (pH 5.0). pH adjusted with HCl. When adding compounds to extracellular solutions, the concentration of DMSO in solution was never higher than 0.3%. […]
All data are presented as mean ± SEM unless otherwise noted, and each data point represents an independent replicant. Inhibition of compounds was quantified as ((I2peak-I1)/(I2peak))*100, where I1 is the current immediately before wash-off and I2peak is the maximum recovered current (Supplementary Fig. 2). Hill coefficients were determined by the following equation: Y = Bmax*X^h/(Kd^h + X^h). […]

Question: For C=C(C)COc1ccccc1NC(=O)c1nc[nH]c1C [C2.2], which inhibition at 10 µM (10 µM, single cells or mean) is on record?
Answer: The inhibition at 10 µM was 74.6%.

Question: And the Inhibition of currents (10 µM, single cells or mean, mean)?
Answer: Its Inhibition of currents is 72.36%.

Question: And the Inhibition of currents (10 µM, single cells or mean, single cells)?
Answer: The Inhibition of currents was 71.3399% and 74.8032% and 68.9769% and 72.0779%.

Question: With O=C(/C(=N\O)c1ccccc1)c1ccccc1 [C11, benzil monoxime] as the compound, how does the Inhibition of currents (100 µM, single cells) read?
Answer: The Inhibition of currents was 70.9091% and 73.0647% and 75.9259% and 71.7822%.

Question: And the inhibition at 100 µM (100 µM, single cells)?
Answer: The inhibition at 100 µM was 76.2%.
